# Measured values reported in patent US20050239804A1, “Method for improved chemical synthesis of guanidinium alkaloids” (The Regents of the University of California, priority 1999, published 2005).
# Assays:
# 60 tumor cell lines = experiment: NCI DTP Human Tumor Cell Line Screen (60 tumor cell lines, Sulforhodamine B assay); type: cell-based; details: 48 h exposure, five 10-fold dilutions
# Excerpt: This example describes the in vitro screening of 60 tumor cell lines against the compounds of the invention: ptilomycalin A, isocrambescidin 800 trihydrochloride, triacetylcrambescidin 800 chloride, crambescidin 657 hydrochloride, crambescidin 800 trihydrochloride, triacetylisocrambescidin 800 chloride, and 13-epiptilomycalin A to determine anti-tumor activity.
# The screening methods utilized the National Cancer Institute (NCI) DTP Human Tumor Cell Line Screen protocol as described by Monks et al., J. Nat'l. Cancer Inst. 83:757-766 (1991); and Boyd In “Cancer Drug Discovery and Development, Vol; 2; Drug Development; Preclinical Screening, Clinical Trial and Approval, Humana Press, 1997, pp 23-43. The origins and processing of the cell lines used are described in Alley et al., Cancer Res., 1988, 48:589-601; Shoemaker et al., Prog. Clin. Biol. Res., 1988, 276:265-286; and Stinson et al., Proc. Am. Assoc. Cancer Res., 1989, 30:613.
# In brief, in the screen protocol, cell suspensions were diluted depending on cell type and the expected target cell density (approximately 5000-40,000 cells per well) into a 96 well microtiter plate. Inoculates were preincubated for 24h at 37 °C for stabilization. Dilutions at twice the intended test concentrations were added at time zero in 100 μL aliquots to the microtiter plate wells. Test compounds were evaluated at five 10-fold dilutions. Routine test concentrations have the highest well concentration at 10E-4M, but for the standard agents, the highest well concentration used depended on the agent used. Incubations lasted 48 hours in 5% CO2 atmosphere and 100% humidity. The cells were assayed by Sulforhodomine B assay as described by Rubenstein et al., JNCI, 1990, 82:1113-1118 and Skehan et al., JNCI, 1990, 82: 1107-1112. Optical densities were read with a plate reader and the data processed using a microcomputer into special concentration parameters.
# NCI renamed the IC50 value, the concentration that causes 50% growth inhibition the “GI50” value to emphasize the correction for the cell count at time zero; thus GI50 is the concentration of test drug where 100×(T−T0)/(C−T0)=50 (Boyd et al., In Cytotoxic Anticancer Drugs: Models and Concepts for Drug Discovery and Development, Vieriote. et al., Eds., Kluwer Academic, Hingham, Mass., 1992, pp 11-34; and Monks et al., JNCI, 1991, 83, 757-766. The optical density of the test well after a 48 hr period of exposure to the test compound is “T”, the optical density at time zero is TO and the control optical density is “C.” The “50” is called the GI50PRCNT, a T/C-like parameter that can have values from +100 to −100. The GI50 also measures the growth inhibitory power of the test compound. The TGI is the concentration of test drug where 100×(T−T0)/(C−T0)=0. Thus, the TGI signifies a cytostatic effect. The LC50 which signifies a cytotoxic effect, is the concentration of the test compound where 100×(T−T0)/T0=−50. The control optical density is not used in the calculation of LC50.
# These concentration parameters are interpolated values. The concentrations giving G150PRCNT values above and below the reference values (e.g. 50 for G150) are used to make interpolations on the concentration axis. […] For mean graph purposes, the value assumed for the G150 in such a case is the highest concentration tested (HICONC). […] In this case, the lowest concentration tested is used for the G150. Corresponding approximations are made for the TGI and for the LC50.
# The results of the tumor cell screening are shown in the mean graphs of 56-62. […]
# L1210 = details: cited from earlier work
# P388 = details: cited from earlier work
# Candida albicans = details: cited from earlier work
# [1] = test system: Herpes simplex virus, type 1 (HSV-1); details: at a concentration of 0.2 μg/mL; cited from earlier work
# brain Na+, K+-ATPase = details: read-out: inhibition of brain Na+, K+-ATPase (IC50); cited from earlier work
# [2] = molecular target: T1, Ca2+-ATPase from skeletal sarcoplasmic reticulum (Homo sapiens, UniProt O14983); details: read-out: inhibition of Ca2+-ATPase from skeletal sarcoplasmic reticulum (IC50); cited from earlier work
# T1 construct: from tissue; host or cells: skeletal muscle sarcoplasmic reticulum
# T1 sequence (O14983 whole entry): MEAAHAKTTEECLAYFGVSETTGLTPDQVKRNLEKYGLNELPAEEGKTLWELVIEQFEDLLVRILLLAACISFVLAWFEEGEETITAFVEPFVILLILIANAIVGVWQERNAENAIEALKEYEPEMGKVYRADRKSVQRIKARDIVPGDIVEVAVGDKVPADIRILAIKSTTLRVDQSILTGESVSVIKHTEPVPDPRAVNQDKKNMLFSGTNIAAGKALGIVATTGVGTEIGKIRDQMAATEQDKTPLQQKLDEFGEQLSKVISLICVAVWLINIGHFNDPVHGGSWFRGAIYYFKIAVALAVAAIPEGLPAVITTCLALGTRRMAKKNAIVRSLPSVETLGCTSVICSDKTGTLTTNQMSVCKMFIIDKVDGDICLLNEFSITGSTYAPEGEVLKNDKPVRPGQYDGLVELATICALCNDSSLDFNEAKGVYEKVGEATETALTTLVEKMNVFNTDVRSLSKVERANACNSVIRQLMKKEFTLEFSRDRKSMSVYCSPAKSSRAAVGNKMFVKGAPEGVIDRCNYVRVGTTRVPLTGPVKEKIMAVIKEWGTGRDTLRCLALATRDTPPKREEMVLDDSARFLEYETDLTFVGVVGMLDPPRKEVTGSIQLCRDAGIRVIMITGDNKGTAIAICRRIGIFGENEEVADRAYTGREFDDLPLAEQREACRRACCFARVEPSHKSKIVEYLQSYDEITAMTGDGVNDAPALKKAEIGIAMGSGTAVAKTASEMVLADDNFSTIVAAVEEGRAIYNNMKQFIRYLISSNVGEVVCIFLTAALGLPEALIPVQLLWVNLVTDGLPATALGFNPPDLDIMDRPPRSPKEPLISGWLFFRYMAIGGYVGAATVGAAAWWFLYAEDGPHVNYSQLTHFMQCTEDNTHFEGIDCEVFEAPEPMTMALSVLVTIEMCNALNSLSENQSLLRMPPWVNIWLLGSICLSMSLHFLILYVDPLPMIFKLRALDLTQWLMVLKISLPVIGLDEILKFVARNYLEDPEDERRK
Compound,"effect on tumor cell lines in the NCI screen (mean graphs of GI50, TGI, LC50; summary in words) (60 tumor cell lines)",further results
"13,14,15-Isocrambescidin 800 Trihydrochloride",lesser effect,"cytotoxicity to L-1210 cells relative to other crambescidins (L1210; L-1210 cells, in words): less cytotoxic to L-1210 cells than other crambescidins"
13-epiptilomycalin A,certain cancer cell lines are sensitive,–
CCC1C=CCCC2(CC3CCC4C(C(=O)OCCCCCCCCCCCCCCCC(=O)N(CCCN)CCCCN)C5(CCCC(C)O5)NC(=N2)N34)O1 (centres unmarked) [Ptilomycalin A],certain cancer cell lines are sensitive,"cytotoxicity against P388 (IC50) (P388): 0.1 µg/mL; cytotoxicity against L1210 (IC50) (L1210; L1210): 0.4 µg/mL; antifungal activity against Candida albicans (MIC) (Candida albicans): 0.8 µg/mL; antiviral activity against Herpes simplex virus, type 1 (HSV-1) [1]: considerable antiviral activity; IC50 (brain Na+, K+-ATPase): 2 µM; IC50 [2]: 10 µM"
"CC[C@H]1C=CCC[C@@]2(C[C@@H]3CC[C@@H]4[C@H](C(=O)OCCCCCCCCCCCCCCCC(=O)N(CCCN)C[C@@H](O)CCN)[C@]5(CCC[C@@H](C)O5)NC(=N2)N34)O1.Cl.Cl.Cl [crambescidin 800 trihydrochloride, Crambescidin 800 Trihydrochloride]",certain cancer cell lines are sensitive,–
"Peracetyl-13,14,15-Isocrambescidin 800 Hydrochloride [triacetylisocrambescidin 800 chloride]",lesser effect,–
Peracetylcrambescidin 800 [triacetylcrambescidin 800 chloride],certain cancer cell lines are sensitive,–
crambescidin 657 hydrochloride,certain cancer cell lines are sensitive,–
